Measured values from patent US6759238B1, “Multidrug resistance associated proteins and uses thereof” (priority 1999, dated 2004).
Like-named read-outs stand apart in the source and are kept apart here.

Columns and labels:
CEM-r1 cells [1] = test: Uptake and metabolism of [3H]PMEA; settings: for Intracellular levels: CEM-r1, 10 μM [3H]PMEA; for Intracellular level in CEM-r1 as percent of the wildtype level: CEM-r1 vs CEM-SS
Procedure: (§9) The mutant and parental cells were incubated with 10 μM [^3H]PMEA and at various times were analyzed for intracellular levels of PMEA and its metabolites by Partisil SAX HPLC. […] The metabolism of [^3H]PMEA was also examined in both cell lines after longer periods (i.e., 8 and 12 hr) of incubation with 10 μM [^3H]PMEA.
(§10) Exponentially growing cultures were incubated with 10 μM [^3H] PMEA for 8 or 12 hr and the cell extracts were analyzed for PMEA and its metabolites by ion exchange HPLC, as described.
(§11) Exponentially growing CEM-SS and CEM-r1 cells were harvested by centrifugation, resuspended at 1×10^6 cells/ml in fresh medium in the presence of [^3H]PMEA or [^3H]bispom-PMEA, and incubated at 37° C. At the indicated time points, aliquots of the cells were removed and centrifuged through Nyosil 50 (W. F. Nye, Inc., New Bedford, Ma.) at 13,000×g for 60 seconds at 4° C. When bispom-PMEA was investigated, an aliquot of the cell-free medium was also removed and analyzed by HPLC for determination of extracellular metabolites. The cell pellet was extracted with 70% ice-cold methanol and the aqueous phase was collected and analyzed for intracellular tritiated PMEA or tritiated bispom-PMEA and their metabolites by using HPLC analysis, essentially as described previously (23, 24).

CEM-SS cells [2] = test: Uptake and metabolism of [3H]PMEA; settings: 10 μM [3H]PMEA
Procedure: as §9, §10, §11

CEM-SS cells [3] = test: Cytotoxicity assay (growth inhibition, Coulter counter)
Procedure: […] Each result is the mean of one representative experiment performed in duplicate. The cultures with the purine nucleosides adenosine, 2′-deoxyadenosine, and arabinosyladenine contained 5 μM deoxycoformycin to inhibit adenosine deaminase activity.
(§1) All assays were performed in 24-well tissue culture plates (Costar, Cambridge, Ma.). […] At the end of the incubation, the cell concentrations, sizes, and volumes were counted in a Coulter counter (Coulter Electronics, Hialeah. Fla.).

CEM-r1 cells [4] = test: as above; settings: for Relative Resistance: CEM-r1 vs CEM-SS (Table 3); for Cross-resistance of CEM-r1 cells (in words): relative sensitivity of wild-type and CEM-r1 cells
Procedure: Selection for PMEA resistance was carried out by exposing CEM-SS cells in culture to increasing concentrations of PMEA, over several months.
The IC50 values were obtained after 2 days of culture. Each result is the mean of one representative experiment performed in duplicate. The cultures with the purine nucleosides adenosine, 2′-deoxyadenosine, and arabinosyladenine contained 5 μM deoxycoformycin to inhibit adenosine deaminase activity.
as §1

CEM-r1 cells [5] = test: Efflux of [3H]-AZT and its metabolites; type: in vitro ADME, human
Procedure: Cells were incubated for 60 minutes with [^3H]-AZT (10 μM) after which they were washed free of radioactivity, resuspended in drug-free medium and the intracellular and the extracellular concentration of [^3H]-AZT were measured. […] At least 80% of the AZTMP present intracellularly in CEM-r1 cells was excreted into the medium in 10 minutes (FIG. 6A).
(§2) Referring to Table 6 in greater detail, efflux kinetics were studied. Transport analysis of PMEA was conducted as previously described^48. […] The cells were then washed free of radioactivity and then incubated in drug-free medium in the presence of sodium azide and 2-deoxy-D-glucose. At various time periods, the amount of intracellular AZTMP was measured. As reported in Table 6, depletion of ATP led to an inhibition of AZTMP efflux (i.e. a significant accumulation of AZTMP in the CEM-r1 cells but not in the CEM-SS cells).
The suspension was centrifuged at 3,300 rpm for 7 minutes. All but 1 ml of the supernatant medium containing the free drug was aspirated. […] The cell pellet was then washed with ice-cold medium and resuspended at the same concentration in drug-free medium and maintained at 37° C. […] An aliquot of the top layer (cell free media) was analyzed for the quantitation of AZT and its metabolites.

CEM-SS cells [6] = test: Phosphorylation of AZT; type: in vitro ADME, human; settings: 10 μM AZT
Procedure: (§3) The appearance of the phosphorylated metabolites into the medium was also determined in both the cell lines. AZTDP and AZTTP were not detected in the medium of either CEM-SS or CEM-r1 cells. However, the amount of AZTMP accumulated in the media was approximately 3-fold higher in CEM-r1 cells than in CEM-SS cells.
(§4) The cartridges were conditioned with 10% MeOH Ammonium Phosphate Buffer (5 mM, pH 4.0). The sample was loaded onto the column. […] AZTDP and AZTTP were eluted with 10% MeOH Ammonium Phosphate Buffer (700 mm, pH 4.6).

CEM-r1 cells [7] = test: Phosphorylation of AZT; type: in vitro ADME, human; settings: CEM-r1, 10 μM AZT
Procedure: as §3, §4

CEM-SS cells [8] = test: Uptake and metabolism of [3H]bispom-PMEA; settings: for Metabolite Levels, Cells / Metabolite Levels, Medium: CEM-SS, 1 μM [3H]bispom-PMEA, 15 minutes
Procedure: (§5) Therefore, the metabolism of [^3H]bispom-PMEA (15), a lipophilic prodrug of PMEA, was analyzed in the two cell lines in order to further examine the mechanism of resistance in the mutant cell line.

CEM-r1 cells [9] = test: Uptake and metabolism of [3H]bispom-PMEA; settings: for Metabolite Levels, Cells / Metabolite Levels, Medium: CEM-r1, 1 μM [3H]bispom-PMEA, 15 minutes
Procedure: as §5

CEM-SS cells [10] = test: Efflux of PMEA from bispom-PMEA loaded cells; type: in vitro ADME, human; settings: CEM-SS, 3 min incubation, efflux at 15 minutes
Procedure: (§6) To examine whether the resistant cells could be altered in their capacity to retain the phosphonate analog, the clearance of [^3H]PMEA and its metabolites from CEM-SS and CME-r1 cells was determined. […] Aliquots of cells and medium sampled at different intervals over a period of 2 hr were analyzed by HPLC, and the results are shown in FIG. 4. […] Some of this clearance was probably due to the anabolism of PMEA, because the PMEAp- and PMEApp-associated radioactivity continued to accumulate within the cells, but the majority of the radioactivity was excreted into the medium as PMEA. In contrast to the results with parental cells, loss of intracellular PMEA-associated radioactivity in the resistant CEM-r1 cells was extremely rapid and the majority of the radioactivity within the cells was excreted into the medium within 20-30 minutes of incubation (FIG. 4).
(§7) Both CEM-SS and CME-r1 cells were incubated for 3 minutes with increasing concentrations (range 0.07 mM to 8.80 mM) of the prodrug for the selecting agent, Bis(POM)PMEA. After incubation, the cells were pelleted and reconstituted in drug-free medium, and the amount of PMEA present in the medium and intracellularly was measured 15 minutes after resuspension. The amount of PMEA effluxing out into the medium at 15 minutes increased initially with increasing concentration (FIG. 7A).
as §2
(§8) At the indicated times, extracts were prepared from the cells and the medium, and the prodrug and its various nucleoside/nucleotide metabolites were analyzed by HPLC as described previously (24).

CEM-r1 cells [11] = test: Efflux of PMEA from bispom-PMEA loaded cells; type: in vitro ADME, human; settings: CEM-r1, 3 min incubation, efflux at 15 minutes
Procedure: as §6, §7
CEM-r1 cells were incubated with 0.07-8.8 mM Bis(POM)PMEA for 3 minutes. The cells were pelleted and reconstituted in either drug-free medium or in medium containing 0.5 mM PMEA, and the amount of PMEA present in the medium and intracellularly was measured 15 minutes after resuspension.
as §2, §8

CaCo-2 cells = test: PMEA transport in transwell culture; type: in vitro ADME; settings: CaCo-2 transwell
Source text: A transwell culture which is permissive for cellular polarization may be used to measure the compartment to compartment flux of putative substrates. […] In addition, it is possible that expression of MPR4 depending if it is basal or apical (and this may vary by organ cultured) may determine if PMEA or PMEA-like drugs are absorbed.

[12] = CEM-SS, 2 days of culture (Table 3)
[13] = CEM-r1, 2 days of culture (Table 3)

## Nc1ncnc2c1ncn2CCOCP(=O)(O)OP(=O)(O)OP(=O)(O)O [PMEApp]
CEM-r1 cells [1]; 8 hr
  Intracellular levels: 0.008 µM
  Intracellular level in CEM-r1 as percent of the wildtype level: (3.6%)
CEM-r1 cells [1]; 12 hr
  Intracellular levels: 0.01 µM
CEM-SS cells [2]; 8 hr
  Intracellular levels: 0.22 µM
CEM-SS cells [2]; 12 hr
  Intracellular levels: 0.41 µM

## Nc1ncnc2c1ncn2C[C@@H](CO)OCP(=O)(O)O [HPMPA]
CEM-SS cells [3]; [12]
  IC50: 92000 nM
CEM-r1 cells [4]; [13]
  IC50: 1100 µM
CEM-r1 cells [4]
  Relative Resistance: 12
  Cross-resistance of CEM-r1 cells (in words): partial cross-resistance

## Nc1ncnc2c1ncn2[C@@H]1O[C@H](CO)[C@@H](O)[C@H]1O [Adenosine]
CEM-SS cells [3]; Homo sapiens, CEM-SS, 48 h
  IC50: 38000 nM
CEM-r1 cells [4]
  Relative Resistance: 5.4
  Cross-resistance of CEM-r1 cells (in words): partially resistant
CEM-r1 cells [4]; Homo sapiens, 48 h
  IC50: 205 µM

## Cc1cn([C@H]2C[C@H](N=[N+]=[N-])[C@@H](COP(=O)(O)OP(=O)(O)O)O2)c(=O)[nH]c1=O [AZTDP]
CEM-r1 cells [5]
  Change of intracellular levels over the time period studied: did not change significantly
  Share of total cellular anabolites: 1%

## CC[C@]1(O)C[C@@H]2CN(CCc3c([nH]c4ccccc34)[C@@](C(=O)OC)(c3cc4c(cc3OC)N(C)[C@H]3[C@@](O)(C(=O)OC)[C@H](OC(C)=O)[C@]5(CC)C=CCN6CC[C@]43[C@@H]65)C2)C1 [Vinblastine]
CEM-SS cells [3]; Homo sapiens, CEM-SS, 48 h
  IC50: 1.8 nM
CEM-r1 cells [4]
  Relative Resistance: ˜1
  Cross-resistance of CEM-r1 cells (in words): not resistant
CEM-r1 cells [4]; Homo sapiens, 48 h
  IC50: 0.0021 µM

## Cc1cn([C@H]2C[C@H](N=[N+]=[N-])[C@@H](CO[P@](=O)(O)O[P@](=O)(O)OP(=O)(O)O)O2)c(=O)[nH]c1=O [AZTTP]
CEM-r1 cells [5]
  Change of intracellular levels over the time period studied: did not change significantly
CEM-r1 cells [5]; human, 10 μM
  Share of total cellular anabolites: 1%
CEM-SS cells [6]
  Appearance in the medium: not detected
CEM-SS cells [6]; 4 hours
  Intracellular Concentration: 1.3 µM
CEM-SS cells [6]; 8 hours
  Intracellular Concentration: 1.5 µM
CEM-SS cells [6]; 24 hours
  Intracellular Concentration: 1.3 µM
CEM-r1 cells [7]
  Appearance in the medium: not detected
CEM-r1 cells [7]; 4 hours
  Intracellular Concentration: 0.36 µM
CEM-r1 cells [7]; 8 hours
  Intracellular Concentration: 0.34 µM
CEM-r1 cells [7]; 24 hours
  Intracellular Concentration: 0.43 µM

## Nc1ncnc2c1ncn2[C@H]1C[C@H](O)[C@@H](CO)O1 [2′-Deoxyadenosine]
CEM-SS cells [3]; Homo sapiens, CEM-SS, 48 h
  IC50: 1700 nM
CEM-r1 cells [4]
  Relative Resistance: ˜1
CEM-r1 cells [4]; Homo sapiens, 48 h
  IC50: 2.5 µM

## CC(C)(C)C(=O)OCOP(=O)([O-])COCCn1cnc2c(N)ncnc21.[Na+] [Monopom-PMEA]
CEM-SS cells [8]
  Metabolite Levels, Cells: 4.6 µM
  Metabolite Levels, Medium: 185 nM
CEM-r1 cells [9]
  Metabolite Levels, Cells: 4.1 µM
  Metabolite Levels, Medium: 166 nM

## Nc1ncnc2c1ncn2CCOCP(=O)(O)OP(=O)(O)O [PMEAp]
CEM-r1 cells [1]; 8 hr
  Intracellular levels: 0.005 µM
  Intracellular level in CEM-r1 as percent of the wildtype level: (3.8%)
CEM-r1 cells [1]; 12 hr
  Intracellular levels: 0.005 µM
CEM-SS cells [2]; 8 hr
  Intracellular levels: 0.13 µM
CEM-SS cells [2]; 12 hr
  Intracellular levels: 0.23 µM

## Nc1nc2c(ncn2CCOCP(=O)(O)O)c(=O)[nH]1 [PMEG, 9-(2-phosphonylmethoxyethyl)guanine]
CEM-SS cells [3]; [12]
  IC50: 700 nM
CEM-SS cells [3]; read-out: Cytotoxicity IC50, WT (CEM-SS) cells (Table 5)
  IC50: 5000 nM
CEM-r1 cells [4]; [13]
  IC50: 19 µM
CEM-r1 cells [4]; read-out: Cytotoxicity IC50, CEM-r1 cells (Table 5)
  IC50: 200 µM
CEM-r1 cells [4]
  Cross-resistance of CEM-r1 cells (in words): partial cross-resistance

## Nc1ncnc2c1ncn2[C@@H]1O[C@H](CO)[C@@H](O)[C@@H]1O [Arabinosyladenine]
CEM-SS cells [3]; Homo sapiens, CEM-SS, 48 h
  IC50: 700 nM
CEM-r1 cells [4]
  Relative Resistance: ˜1
CEM-r1 cells [4]; Homo sapiens, 48 h
  IC50: 0.9 µM

## Nc1nc(F)nc2c1ncn2[C@@H]1O[C@H](CO)[C@@H](O)[C@@H]1O [2-Fluoroarabinosyladenine]
CEM-SS cells [3]; [12]
  IC50: 1200 nM
CEM-r1 cells [4]; [13]
  IC50: 4.4 µM
CEM-r1 cells [4]
  Relative Resistance: 3.7
  Cross-resistance of CEM-r1 cells (in words): partially resistant

## NC(=O)NO [Hydroxyurea]
CEM-SS cells [3]; Homo sapiens, CEM-SS, 48 h
  IC50: 55000 nM
CEM-r1 cells [4]
  Relative Resistance: ˜1
CEM-r1 cells [4]; Homo sapiens, 48 h
  IC50: 50 µM

## COc1cc2c(c(OC)c1OC)-c1ccc(OC)c(=O)cc1[C@@H](NC(C)=O)CC2 [Colchicine]
CEM-r1 cells [4]
  Cross-resistance of CEM-r1 cells (in words): not resistant

## CC(C)(C)C(=O)OCOP(=O)(COCCn1cnc2c(N)ncnc21)OCOC(=O)C(C)(C)C [Bispom-PMEA, bis(pivaloyloxymethyl)-9-(2-phosphonylmethoxyethyl)adenine]
CEM-SS cells [3]; [12]
  IC50: 260 nM
CEM-SS cells [8]
  Metabolite Levels, Cells: 0.03 µM
  Metabolite Levels, Medium: 490 nM
CEM-SS cells [8]; after incubation with [3H]bispom-PMEA, similar in parental and resistant cells
  Radioactivity present in the cells detected as the intact pro-drug: ~2%
CEM-r1 cells [9]; 1 μM [3H]bispom-PMEA, early time course (120 sec), CEM-SS vs CEM-r1
  Initial uptake, difference between the two cell lines: no significant difference
CEM-r1 cells [9]
  Metabolite Levels, Cells: 0.04 µM
  Metabolite Levels, Medium: 429 nM
CEM-SS cells [10]
  Prodrug concentration above which the amount of PMEA effluxed did not increase significantly: higher than 2.2 mM
CEM-r1 cells [4]; [13]
  IC50: 32 µM
CEM-r1 cells [4]
  Relative Resistance: 123
  Cross-resistance of CEM-r1 cells (in words): highly cross-resistant
CEM-r1 cells [11]
  Prodrug concentration above which the amount of PMEA effluxed did not increase significantly: > 4.4 mM

## Nc1nc(N)c2ncn(CCOCP(=O)(O)O)c2n1 [PMEADAP]
CEM-SS cells [3]; Homo sapiens, CEM-SS, 48 h
  IC50: 2300 nM
CEM-r1 cells [4]
  Relative Resistance: 533
  Cross-resistance of CEM-r1 cells (in words): highly cross-resistant
CEM-r1 cells [4]; Homo sapiens, 48 h
  IC50: 1200 µM

## prostaglandin A
CaCo-2 cells
  Effect on apical to basal transport of PMEA: specifically inhibits
  Effect on basal to apical flux of PMEA: no effect

## Nc1nc(Cl)nc2c1ncn2[C@H]1C[C@H](O)[C@@H](CO)O1 [2-Chlorodeoxyadenosine]
CEM-SS cells [3]; Homo sapiens, CEM-SS, 48 h
  IC50: 80 nM
CEM-r1 cells [4]
  Relative Resistance: 5.5
  Cross-resistance of CEM-r1 cells (in words): partially resistant
CEM-r1 cells [4]; Homo sapiens, 48 h
  IC50: 0.4 µM
